The target of assay [1] is T1, RPL29 (Homo sapiens, UniProt P47914).
T1 construct: endogenous in cells; host or cells: HEK293 Flp-In/T-REx cells
Nature of the assay: Flag IP-MS of i53/i53-DM baits: prey RPL29. To be noted: 293T Flp-In/T-Rex extracts, LC-MS/MS, one column per replicate IP. The format is binding. The method, then: (§1) Following immunoprecipitation of Flag-tagged i53 and i-53-DM from HEK293 Flp-In/T-REx cells, peptides were identified using LC-MS/MS. Proteins were digested in solution with trypsin (Sigma, T7575-1KT) and dried to completeness. For LC-MS/MS analysis, peptides were reconstituted in 5% formic acid and loaded onto a 12-15 cm fused silica column with pulled tip packed in-house with 3.5 μm Zorbax C18 (Agilent Technologies, Calif., USA).
(§2) i53 and i53-DM precipitates were analyzed using an LTQ (Thermo Scientific) coupled to an Agilent 1100 Series HPLC (Agilent Technologies). Peptides were eluted from the column using a 90 min period cycle with a linear gradient from 0% to 40% ACN in 0.1% formic acid. Tandem MS spectra were acquired in a data-dependent mode for the top 5 (LTQ) most abundant ions using collision-induced dissociation. Acquired spectra were searched against the human Refseq_V53 database using Mascot (Matrix Science).
(§3) 293T Flp-In/T-Rex cell lines were generated that expressed Flag-tagged i53 or i53-DM under the control of a tetracycline-inducible promoter as previously described. Nine IP-MS experiments were analyzed (3 biological replicate IPs each for control i53- and i53-DM expressing cell lines). The interacting proteins were identified by MASCOT to identify high-confidence interactors for i53. […]

In assay [2] the test system is gene targeting at the LMNA locus in U2OS cells. Nature of the assay: LMNA mClover gene targeting assay (CRISPR/Cas9). The format is cell-based. The protocol: FIG. 4. Activation of HR by i53. FIG. 4A, Schematic of the DR-GFP assay. FIG. 4B. U2OS DR-GFP cells were transfected with the vectors expressing i53, the DM mutant or an empty vector control (EV) along with an I-Scel expression vector. The percentage of GFP-positive cells was determined 48 h post-transfection for each condition and was normalized to the empty vector condition (mean±s.d., N=4). FIG. 4C, U2OS DR-GFP were first transfected with siRNAs targeting the 53BP1 or BRCA1 mRNAs along with a non-targeting siRNA (CTRL). 24 h post-transfection, cells were transfected with the I-SceI expression vector and the percentage of GFP-positive cells was determined 48 h post-siRNA transfection for each condition. The values were normalized to the empty vector condition and presented as the mean±s.e.m; N=4. FIG. 4D, Schematic of the gene targeting assay. FIG. 4E, Gene targeting efficiency at the LMNA locus in parental or 53BP1Δ U2OS cells following transfection with vectors expressing Flag-tagged i53 or its DM mutant or an empty vector control (EV). The DNA-PK inhibitor NU7441 was also added where indicated. 24 h post-transfection, cells were analysed for mClover fluorescence. Individual experiments are presented with the error bar representing the s.d., (N=3). FIG. 4F, Gene targeting at the LMNA locus in G 1-arrested parental (WT) or 53BP1Δ U2OS cells transfected with vectors expressing Flag-tagged i53 or its DM mutant or an empty vector control (EV). The DNA-PK inhibitor NU7441 was also added in the indicated conditions. 24 h post-transfection, cells were analysed for mClover fluorescence. Individual experiments are present with the error bar representing the s.d., (N=3).
The Lamin A (LMNA) assay to measure the frequency of introduction of the coding sequence for mClover at the 5′ end of LMNA using the CRISPR/Cas9 was performed as previously described4. Parental or 53BP1Δ U2OS cell lines were transfected with the indicated plasmids using Lipofectamine RNAiMAX (Invitrogen). 24 h later, the cells were electroporated with 2.5 μg of sgRNA plasmids and 2.5 μg of donor template using a Nucleofector (Lonza; protocol X-001). Parental or 53BP1Δ U2OS cells stably expressing CtIP-T847E mutant were transfected with an siRNA against KEAP1 and the indicated plasmids and processed as previously described.

The target in assay [3] is T2, NAP1L1 (Homo sapiens, UniProt P55209).
T2 construct: endogenous in cells; host or cells: HEK293 Flp-In/T-REx
T2 sequence (P55209 1-391): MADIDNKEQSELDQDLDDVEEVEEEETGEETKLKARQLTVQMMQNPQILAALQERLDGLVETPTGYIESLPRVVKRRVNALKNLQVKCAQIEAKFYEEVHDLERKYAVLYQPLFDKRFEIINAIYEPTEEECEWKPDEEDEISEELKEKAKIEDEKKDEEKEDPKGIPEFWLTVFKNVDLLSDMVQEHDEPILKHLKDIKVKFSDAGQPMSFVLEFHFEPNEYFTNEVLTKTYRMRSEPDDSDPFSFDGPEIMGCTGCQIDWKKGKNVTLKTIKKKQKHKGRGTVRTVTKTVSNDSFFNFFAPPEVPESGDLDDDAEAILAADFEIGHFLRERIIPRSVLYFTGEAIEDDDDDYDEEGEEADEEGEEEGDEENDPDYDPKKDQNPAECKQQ
Nature of the assay: Flag IP-MS of i53/i53-DM baits: prey NAP1L1. It is filed as binding. To be noted: 293T Flp-In/T-Rex extracts, LC-MS/MS, one column per replicate IP. The method, then: as §1, §2, §3

The target of assay [4] is T3, HIST1H2BG (Homo sapiens, UniProt P62807).
T3 construct: endogenous in cells; host or cells: HEK293 Flp-In/T-REx
In words: Flag IP-MS of i53/i53-DM baits: prey HIST1H2BG. It is filed as binding. To be noted: 293T Flp-In/T-Rex extracts, LC-MS/MS, one column per replicate IP. The method, then:
as §1, §2, §3

Entries after “also recorded” stand apart in the source; their conditions may differ.

“i53-DM: 53BP1-binding deficient mutant of i53 (P69L, L70V)”: in assay [1], the “Total peptides, RPL29” value was 3.

“i53: UbvG08 with C-terminal di-glycine removed and I44A mutation; genetically encoded inhibitor of 53BP1”: the “Gene targeting at the LMNA locus in 53BP1Δ cells” value in assay [2] (53BP1Δ U2OS cells) was “did not result in a further increase in gene targeting”. The “Cas9-stimulated gene targeting at the LMNA locus in G1” value in assay [2] (G1-arrested U2OS cells expressing CtIP-T847E, KEAP1 siRNA, compared with 53BP1 knockout) is “nearly as efficient as the 53BP1 knockout”. In assay [2] (i53 plus NU7441 (10 μM)), the “Gene targeting at the LMNA locus, i53 combined with DNA-PK inhibition” value is reported as “additive increase in gene targeting”. For the same substance, in assay [2] (parental U2OS cells, NU7441 at 10 μM), the “Change of gene targeting at the LMNA locus (in words)” value is “nearly two-fold; also recorded: approached that of 53BP1-null cells”. The “Gene targeting efficiency at the LMNA locus (mClover-positive cells)” value in assay [2] (parental U2OS cells, empty vector control 4.79% +/−0.5%) came out at 8.58%. In assay [3], the “Total peptides, NAP1L1” value was determined as 4. For the same substance, the “Total peptides, HIST1H2BG” value in assay [4] turned out to be 4.
